Experimental data reported in paper PMC7910904, “Improving the Antioxidant Properties of Calophyllum inophyllum Seed Oil from French Polynesia: Development and Biological Applications of Resinous Ethanol-Soluble Extracts” (Antioxidants, 2021).
Values after ≈ are worked out from the molar mass of the structure shown.

Tests used:
[1] = Metal chelating capacity (ferrozine); settings: EDTA equivalents per gram of extract
DPPH assay = settings: for IC50: metabolites and standards, in dichloromethane
Procedure: Experiments were performed according to previous procedures. Aliquots of dichloromethane solutions of oil or fractions (50–500 mg/mL) or test compounds (final concentration 0.01–2 mM) were added to 200 µL of a freshly prepared DPPH solution (75 mg/L), and the final volume was adjusted to 300 µL with dichloromethane to obtain a final DPPH concentration of 0.13 mM. The absorbance was read at 517 nm on a microplate reader 3 min after sample addition. Experiments were performed in triplicate and averaged. The DPPH inhibition was calculated as follows:Inhibition (%) = [100 × (A0 − A)/A0](1)

[2] = Total peroxyl radical-trapping potential (TRAP) assay; settings: for TRAP TE: metabolites and standards: activity of a 1 µM-solution relative to 1 µM Trolox
Procedure: The experimental protocol of the TRAP assay was previously reported. Briefly, AAPH (150 mM) was dissolved in 10 mL of Tris HCl buffer solution (100 mM, pH 7.4), and the solution was kept at 37 °C for 30 min to initiate thermal radical formation. A luminol stock solution (1 mM) was prepared in 50 mL Tris HCl buffer and kept in darkness at 4 °C. A 78 µM, working luminol solution was prepared before each assay by dilution in Tris HCl buffer. Samples for assays were prepared as follows: 2 mL of AAPH (final concentration, 100 mM) and 500 μL of luminol solution (final concentration, 13 µM) were introduced in a 3 mL tube; then, 500 μL of pure acetone (blank) or solution of the tested oil or extract in acetone (0.005–0.2 mg/mL) or DMSO (test compounds: 5–300 µM) were added and the mixture vortexed for 5 s before luminescence analysis. A calibration curve was obtained in the same conditions using the antioxidant Trolox (1–40 μM) as a standard.
Quantification of radical scavenging capacity was performed by integrating the area under the curve (AUC) for the sample and blank solutions, and the results are expressed as Trolox Equivalents (TE) using Equation (2):TE = ([Trolox] × ΔAUC Sample)/([Sample] × ΔAUC Trolox)(2) where ΔAUC Sample (Trolox) = AUC Blank − AUC Sample (Trolox).

[3] = target: T1, Lipoxygenase (15-LOX, soybean) (Glycine max, UniProt P08170); experiment: Lipoxygenase inhibitory activity (Cayman kit); format: biochemical; settings: compounds at 100 µg/mL
T1 sequence (P08170 1-839): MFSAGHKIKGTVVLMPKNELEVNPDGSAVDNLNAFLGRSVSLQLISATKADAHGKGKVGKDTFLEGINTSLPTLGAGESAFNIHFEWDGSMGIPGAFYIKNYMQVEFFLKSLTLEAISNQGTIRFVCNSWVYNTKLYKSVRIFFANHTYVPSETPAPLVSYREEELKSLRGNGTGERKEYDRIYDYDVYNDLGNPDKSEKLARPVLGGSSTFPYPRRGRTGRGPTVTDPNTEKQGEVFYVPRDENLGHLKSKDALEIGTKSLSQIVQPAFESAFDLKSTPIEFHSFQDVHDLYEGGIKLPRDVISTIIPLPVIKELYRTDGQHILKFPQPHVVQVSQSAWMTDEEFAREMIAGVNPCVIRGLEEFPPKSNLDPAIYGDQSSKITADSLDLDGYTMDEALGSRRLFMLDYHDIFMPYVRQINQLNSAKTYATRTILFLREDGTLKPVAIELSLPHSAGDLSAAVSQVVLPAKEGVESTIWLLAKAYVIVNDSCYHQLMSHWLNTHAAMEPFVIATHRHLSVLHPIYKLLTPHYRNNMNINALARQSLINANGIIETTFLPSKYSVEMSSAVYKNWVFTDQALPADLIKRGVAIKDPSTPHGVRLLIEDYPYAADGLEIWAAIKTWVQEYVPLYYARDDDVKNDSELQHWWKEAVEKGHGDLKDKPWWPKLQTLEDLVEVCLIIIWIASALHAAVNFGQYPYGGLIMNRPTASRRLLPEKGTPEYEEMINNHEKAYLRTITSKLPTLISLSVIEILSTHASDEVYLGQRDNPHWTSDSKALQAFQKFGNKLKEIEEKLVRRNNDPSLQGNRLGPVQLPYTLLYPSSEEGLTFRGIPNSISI
Procedure: Lipoxygenase (15-LOX, soybean) inhibitory activity was evaluated using a commercial assay kit (Cayman Chemicals Co; Item No. 760700) according to the manufacturer’s instructions. Solutions of test samples (10 μL) in methanol were added into 96-wells plates together with assay buffer, and the enzyme was added. The reaction was initiated by adding 10 μL of arachidonic acid to the wells and the plate was placed on a shaker for 15 min. Chromogen solution (100 μL) was added to the wells, the plate was then placed on a shaker for 10 min and absorbance was read at 495–500 nm. […] Results are expressed as a percentage relative to the activity without the test compound.

[4] = Superoxide radical quenching (allopurinol-XO generator, lucigenin luminescence); settings: glycine buffer/acetone
Procedure: All reactants were dissolved in glycine buffer, and the reaction was carried out at 25 °C [30]. […] The test tube was inserted in the luminometer, and reaction was initiated by adding a XO suspension (2 µL, 11 mU/mL). Luminescence was monitored for a total period of 7 min and O2^•− quenching was calculated by subtracting areas under the curve against blank. Each measurement was performed in triplicate.

[5] = test system: Staphylococcus aureus (ATCC 6538); experiment: Antimicrobial disk-diffusion agar method; format: cell-based; settings: for Antimicrobial activity against S. aureus, in words: 20 µg per disc; for zone of inhibition at 20 µg/disc: Staphylococcus aureus, ATCC6538, 20 µg/disk, 24 h, read-out: S. aureus Diameter of the zone of inhibition
3T3 fibroblasts = experiment: MTT cytotoxicity on 3T3 fibroblasts; format: cell-based, murine; settings: Mus musculus, Fibroblast, 50% viability after 48 h
M. tuberculosis H37 RV = experiment: Anti-mycobacterial Microplate-based Alamar Blue assay (MABA); format: cell-based; settings: Mycobacterium tuberculosis, H37RV
[6] = test system: A549 human lung carcinoma cells; experiment: MTT cytotoxicity on A549 cells; format: cell-based; settings: 50% viability after 48 h
[7] = target: T2, xanthine oxidase (XO; from buttermilk) (Bos taurus, UniProt P80457); experiment: biochemical; settings: 30 min, 37 °C; read-out: XO Inhibition IC50 (converted)
T2 construct: purchased Sigma-Aldrich; host or cells: buttermilk (natural source)
Procedure: All reactants were dissolved in PBS (0.2 M, pH 7.5). The experiments were performed at 37 °C in 96-wells microplates with a final volume of 250 µL/well [30]. […] To all wells, 25 µL of EDTA (0.1 mM in PBS) and 25 µL of xanthine solution (500 µM) were then added, and the reaction was started by adding 50 µL of XO suspension (23.32 mU/mL), while PBS (50 µL) was added in blank samples. The final concentrations were: xanthine, 50 µM; EDTA, 10 µM and XO, 4.7 mU/mL. The wells were incubated for 30 min at 37 °C, and uric acid production was determined by subtracting the absorbance at 290–295 nm of the sample against that of the blank. Each measurement was performed in triplicate.

T2 sequence (P80457 whole entry): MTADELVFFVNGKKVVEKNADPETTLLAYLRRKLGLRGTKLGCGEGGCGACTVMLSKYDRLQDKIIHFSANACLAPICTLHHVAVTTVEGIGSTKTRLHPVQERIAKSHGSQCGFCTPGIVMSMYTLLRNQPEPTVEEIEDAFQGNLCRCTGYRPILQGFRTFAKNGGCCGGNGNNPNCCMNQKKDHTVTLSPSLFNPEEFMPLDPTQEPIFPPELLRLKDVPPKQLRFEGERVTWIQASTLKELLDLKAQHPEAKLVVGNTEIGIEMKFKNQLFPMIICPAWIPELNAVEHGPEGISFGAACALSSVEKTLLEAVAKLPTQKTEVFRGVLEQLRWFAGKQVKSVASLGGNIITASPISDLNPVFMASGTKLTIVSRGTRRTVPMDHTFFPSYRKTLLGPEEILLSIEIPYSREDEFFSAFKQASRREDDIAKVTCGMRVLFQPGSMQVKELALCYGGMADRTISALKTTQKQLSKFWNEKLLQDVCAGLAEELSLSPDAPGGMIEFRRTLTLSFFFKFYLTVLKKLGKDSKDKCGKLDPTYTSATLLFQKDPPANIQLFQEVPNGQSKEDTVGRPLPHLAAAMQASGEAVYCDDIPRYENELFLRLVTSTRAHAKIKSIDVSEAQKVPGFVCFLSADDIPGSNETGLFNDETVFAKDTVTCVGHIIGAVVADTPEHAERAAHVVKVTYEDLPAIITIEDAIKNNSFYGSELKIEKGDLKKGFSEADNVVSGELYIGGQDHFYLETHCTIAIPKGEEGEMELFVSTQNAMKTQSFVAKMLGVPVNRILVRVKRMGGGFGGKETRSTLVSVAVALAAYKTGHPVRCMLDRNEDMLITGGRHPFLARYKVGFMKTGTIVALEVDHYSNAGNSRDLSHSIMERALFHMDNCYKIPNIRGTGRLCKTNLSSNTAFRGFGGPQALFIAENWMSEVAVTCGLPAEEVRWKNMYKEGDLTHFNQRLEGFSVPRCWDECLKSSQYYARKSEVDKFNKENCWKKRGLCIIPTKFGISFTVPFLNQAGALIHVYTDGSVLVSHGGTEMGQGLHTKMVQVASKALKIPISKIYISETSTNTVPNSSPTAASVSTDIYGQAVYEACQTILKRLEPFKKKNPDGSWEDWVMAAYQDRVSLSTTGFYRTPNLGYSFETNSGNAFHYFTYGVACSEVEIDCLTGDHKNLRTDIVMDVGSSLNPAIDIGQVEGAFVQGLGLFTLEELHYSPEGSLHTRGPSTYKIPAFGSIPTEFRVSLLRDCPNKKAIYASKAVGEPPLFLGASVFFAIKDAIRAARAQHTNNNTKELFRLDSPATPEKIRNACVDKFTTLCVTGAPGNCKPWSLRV

SMILES	IC50 (DPPH assay) [µM]	TRAP TE [2] [TE]	zone of inhibition at 20 µg/disc [5] [mm]	DPPH scavenging capacity, in words (DPPH assay)	TRAP activity, in words [2]	IC50 (3T3 fibroblasts) [µg/mL]	MIC (M. tuberculosis H37 RV) [µg/mL]	IC50 [6] [µg/mL]	further results
O=c1c(O)c(-c2ccc(O)c(O)c2)oc2cc(O)cc(O)c12 [Quercetin]	14.1 ± 0.21	6.31 ± 0.24	–	–	–	–	–	–	MCC [1]: 105 ± 3 µmol EDTAE/g; inhibition at 100 µg/mL [3]: 83 ± 2%; O2•− Quenching IC50 [4]: 0.083 ± 0.06 µg/mL
C[C@@H]1[C@@H](C)Oc2c3c(c4c(-c5ccccc5)cc(=O)oc4c2[C@@H]1O)OC(C)(C)C=C3 [Inophyllum P]	26.2 ± 3.1	4.11 ± 0.10	17 ± 1	strongly active	strong antioxidant activity	92 ± 4 (≈ 227 µM)	5.7 ± 0.3 (≈ 14.1 µM)	11.3 ± 0.6 (≈ 27.9 µM)	Antimicrobial activity against S. aureus, in words [5]: significant activity; DPPH: times more active than inophyllums E and C (DPPH assay): 20–30 times; TRAP efficiency relative to Trolox [2]: about four times more efficient than Trolox
CCCc1cc(=O)oc2c3c(c4c(c12)OC(C)(C)C=C4)O[C@H](C)[C@H](C)C3=O [Calanolide D]	> 1000	–	–	inactive	–	–	–	–	–
CCCc1cc(=O)oc2c3c(c4c(c12)OC(C)(C)C=C4)O[C@H](C)[C@@H](C)C3=O [12-Oxocalanolide A]	> 1000	–	18 ± 2	inactive	–	36 ± 8 (≈ 97.7 µM)	> 15	1.9 ± 0.1 (≈ 5.16 µM)	Antimicrobial activity against S. aureus, in words [5]: significant activity
C[C@H]1Oc2c3c(c4c(-c5ccccc5)cc(=O)oc4c2C(=O)[C@@H]1C)OC(C)(C)C=C3 [Inophyllum C]	701 ± 9	0.21 ± 0.04	–	moderately active	weakly active	–	–	–	–
O=C(O)c1cc(O)c(O)c(O)c1 [Gallic acid]	–	–	–	–	–	–	–	–	MCC [1]: 90 ± 3 µmol EDTAE/g; IC50 [7]: 242 µM; inhibition at 100 µg/mL [3]: 28 ± 2%; O2•− Quenching IC50 [4]: 0.022 ± 0.01 µg/mL
O=C(O)/C=C/c1ccc(O)c(O)c1 [Caffeic acid]	18.1 ± 0.21	2.98 ± 0.14	–	–	–	–	–	–	MCC [1]: 125± 5 µmol EDTAE/g; IC50 [7]: 219 µM; inhibition at 100 µg/mL [3]: 45 ± 1%; O2•− Quenching IC50 [4]: 0.013 ± 0.06 µg/mL
Cc1onc(-c2ccccc2)c1C(=O)N[C@@H]1C(=O)N2[C@@H]1SC(C)(C)[C@@H]2C(=O)O [Oxacillin, reference compound]	–	–	30 ± 1	–	–	–	–	–	–
[H]/N=C(/N)N[C@H]1[C@H](O)[C@@H](O)[C@H](O[C@@H]2O[C@@H](C)[C@](O)(C=O)[C@H]2O[C@@H]2O[C@@H](CO)[C@H](O)[C@@H](O)[C@@H]2NC)[C@@H](N/C(N)=N\[H])[C@@H]1O [Streptomycin, reference compound]	–	–	–	–	–	–	0.4 ± 0.1 (≈ 0.688 µM)	–	–
C/C=C(\C)C(=O)c1c(OC)c2c(c3c(-c4ccccc4)cc(=O)oc13)OC(C)(C)C=C2 [Calophyllolide]	~890	0.48 ± 0.08	19 ± 3	slightly active	weakly active	49 ± 4 (≈ 118 µM)	> 15	3.1 ± 0.9 (≈ 7.44 µM)	Antimicrobial activity against S. aureus, in words [5]: significant activity
C[C@@H]1C(=O)c2c(c3c(c4c(-c5ccccc5)cc(=O)oc24)OC(C)(C)C=C3)O[C@@H]1C [Inophyllum E]	481 ± 7	0.91 ± 0.04	14 ± 2	moderately active	weakly active	120 ± 9 (≈ 298 µM)	> 15	44.8 ± 2.2 (≈ 111 µM)	–
COc1ccc(O)c(C(C)(C)C)c1 [BHA, reference compound]	94.9 ± 6.1	3.46 ± 0.20	–	–	–	–	–	–	–
CCC(C)c1cc(=O)oc2c3c(c4c(c12)OC(C)(C)C=C4)OC(C)C(C)C3O (stereo not shown) [Tamanolide D]	779 ± 7	1.36 ± 0.20	12 ± 2	moderately active	–	46 ± 5 (≈ 120 µM)	5.1 ± 0.3 (≈ 13.3 µM)	9.3 ± 1.2 (≈ 24.2 µM)	–
Cc1c(C)c2c(c(C)c1O)CCC(C)(C(=O)O)O2 (stereo not shown) [Trolox, 6-hydroxy-2,5,7,8-tetramethylchroman-2-carboxylic acid, reference compound]	21.2 ± 0.8	1	–	–	–	–	–	–	–
C=C(C)C(CC=C(C)C)CC1(CC=C(C)C)C(=O)C(C(CCC)CC(=O)O)=C(O)C2=C1O[C@H](C)[C@@H](C)C2=O (stereo partly shown) [Inocalophyllin B]	583 ± 17	1.07 ± 0.06	20 ± 2	moderately active	significant TRAP activity	41 ± 5 (≈ 77.8 µM)	> 15	4.2 ± 1.3 (≈ 7.97 µM)	Antimicrobial activity against S. aureus, in words [5]: active
C/C=C(\C)C(=O)c1c(OC)c2c(c3c(CCC)cc(=O)oc13)OC(C)(C)C=C2 [Calanolide GUT 70]	~900	0.30 ± 0.03	–	slightly active	weakly active	–	–	–	–
Oc1ccc2c(c1)OCO2 [Sesamol, reference compound]	66.9 ± 3.1	1.34 ± 0.09	–	–	–	–	–	–	–
CCCc1cc(=O)oc2c3c(c4c(c12)OC(C)(C)C=C4)O[C@H](C)[C@@H](C)[C@@H]3O [Calanolide A]	~950	0.40 ± 0.02	14 ± 1	slightly active	–	52 ± 8 (≈ 140 µM)	4.1 ± 0.3 (≈ 11.1 µM)	8.2 ± 1.7 (≈ 22.1 µM)	–
